Test results from patent US12171230B2, “Herbicidal compositions” (Bayer Aktiengesellschaft, priority 2018, dated 2024).
Where “and” joins values, the source holds several entries; their conditions need not be identical. Equal values may be shown once. Read-outs that look alike come from different tables or passages of the source.

Columns and labels:
Format in all cases: in vivo
Poa annua = test: Post-emergence herbicidal action against Poa annua; conditions: post-emergence, 28 DAT
How it was run: (§1)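 Seeds or rhizome pieces were grown in sandy loam in pots in a greenhouse, and plants were sprayed at the three-leaf stage, three weeks after sowing. Spray powders or emulsion concentrates were applied in various dosages at 300 to 800 l/ha water. Efficacy was scored visually after 3 to 4 weeks against untreated controls.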

Sorghum halepense = test: Post-emergence herbicidal action against Sorghum halepense; conditions: 1.7 g of a.i./ha
How it was run: as §1

Amaranthus palmeri = test: Post-emergence herbicidal action against Amaranthus palmeri; conditions: for Herbicidal action: 16 DAT; for pest or weed control at […] / pest or weed control at 5 g/ha / pest or weed control at 15 g/ha: Amaranthus palmeri, post-emergence, 504 h; for pest or weed control at […]: 1.7 g of a.i./ha; for pest or weed control at 5 g/ha: 5 g of a.i./ha; for pest or weed control at 15 g/ha: 15 g of a.i./ha
How it was run: as §1

Matricaria inodora = test: Post-emergence herbicidal action against Matricaria inodora; conditions: for Herbicidal action: 1 g a.i./ha
Panicum maximum = test: Post-emergence herbicidal action against Panicum maximum
Method: (§2) When the observed efficacies exceed the formal sum total of the values of the tests with individual applications, they also exceed the expected value according to Colby, which is calculated using the formula below and is likewise regarded as an indication of synergism (cf. S. R. Colby; in Weeds 15 (1967) p. 20 to 22): E^C=A+B−([…])
(§3) Here: • A=efficacy of the active compound (A) in % at an application rate of a g a.i./ha; • B=efficacy of the active compound (B) in % at an application rate of b g a.i./ha; • E^C=expected value of the effect of the combination (A)+(B) in % at the combined application rate a+b g a.i./ha.
(§4) Seeds or rhizome pieces of mono- and dicotyledonous weeds are placed in sandy loam in pots, covered with soil and grown in a greenhouse under good growth conditions (temperature, air humidity, water supply). Three weeks after sowing, the test plants were treated at the three-leaf stage with the compositions according to the invention. The compositions according to the invention formulated as spray powders or as emulsion concentrates were sprayed onto the green plant parts in various dosages with an application rate of 300 to 800 l/ha of water (equivalent). After the test plants have been left to stand in the greenhouse under optimal growth conditions for about 3 to 4 weeks, the action of the preparations is scored visually in comparison to untreated controls. The compositions according to the invention also have good post-emergence herbicidal activity against a broad spectrum of economically important gramineous and broadleaf weeds.

Echinochloa crus-galli = test: Post-emergence herbicidal action against Echinochloa crus-galli; conditions: 100 g a.i./ ha, post-emergence
How it was run: as §1

Viola tricolor = test: Post-emergence herbicidal action against Viola tricolor
How it was run: (§5)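 Colby-derived expected values (E^C) and the summed effects of the separate applications (E^A) accompany each rating. Active substance was dosed in grams per hectare on a 100% active-compound basis, with the rating period given as DAT.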

Setaria viridis = test: Post-emergence herbicidal action against Setaria viridis; conditions: 1.7 g of a.i./ha
Method: as §2, §3, §4

Chenopodium album = test: Post-emergence herbicidal action against Chenopodium album
Method: as §2, §3, §4

Bromus sterilis = test: Post-emergence herbicidal action against Bromus sterilis
How it was run: as §5

Lamium purpureum = test: Post-emergence herbicidal action against Lamium purpureum
How it was run: as §1

[1] = block with (B1.14) Tembotrione, read-out: Herbicidal action 21 DAT [%] against Amaranthus palmeri
[2] = block with (B1.7) Mesotrione, read-out: Herbicidal action 21 DAT [%] against Amaranthus palmeri
[3] = read-out: Herbicidal action 21 DAT [%] against Amaranthus palmeri
[4] = (Z61) post-emergence, g of a.i./ha: 1, 270, 90, 1 + 270, 1 + 90

## C=C[C@]1(C(=O)N[C@H]2CO[C@@H](C(=O)OC)C2)CC(c2cc(F)cc(F)c2)=NO1 (relative stereo) [Compound A3, methyl rel-(2R,4R)-4-[[(5S)-3-(3,5-difluorophenyl)-5-vinyl-4H-isoxazole-5-carbonyl]amino]tetrahydrofuran-2-carboxylate]
Poa annua; 1 g of a.i./ha
  Herbicidal action in [%] 28 DAT against Poa annua L.: 20%
Poa annua; 4 g of a.i./ha
  Herbicidal action in [%] 28 DAT against Poa annua L.: 80%
Poa annua; 16 g of a.i./ha
  Herbicidal action in [%] 28 DAT against Poa annua L.: 85%
Sorghum halepense
  Herbicidal action 21 DAT [%] against Sorghum halepense: 40%
  Herbicidal action 21 DAT against Sorghum halepense: 40%
Sorghum halepense; post-emergence
  Herbicidal action 21 DAT [%] against Sorghum halepense: 40%
Amaranthus palmeri; 50 g a.i./ha
  Herbicidal action: 35%
Amaranthus palmeri; 100 g a.i./ha
  Herbicidal action: 45%
Amaranthus palmeri; [1]
  pest or weed control at […]: 0%
  pest or weed control at 5 g/ha: 10%
  pest or weed control at 15 g/ha: 30%
Amaranthus palmeri; [2]
  pest or weed control at […]: 10%
  pest or weed control at 5 g/ha: 15%
Amaranthus palmeri; block with (B9.10) Saflufenacil, read-out: Herbicidal action 21 DAT [%] against Amaranthus palmeri
  pest or weed control at […]: 0%
Amaranthus palmeri; [3]
  pest or weed control at 5 g/ha: 15%
  pest or weed control at 15 g/ha: 30%
Amaranthus palmeri; 21 DAT, read-out: Herbicidal action 21 DAT [%] against Amaranthus palmeri
  pest or weed control at 5 g/ha: 15%
Amaranthus palmeri; 21 DAT
  pest or weed control at […]: 10%
Matricaria inodora; 1 g of a.i./ha
  Herbicidal action 14 DAT against Matricaria inodora: 0%
  Herbicidal action 28 DAT against Matricaria inodora: 0%
Matricaria inodora; 1 g of a.i./ha, post-emergence
  Herbicidal action in [%] 28 DAT against Matricaria inodora: 0%
Matricaria inodora; 4 g of a.i./ha
  Herbicidal action 14 DAT against Matricaria inodora: 30%
  Herbicidal action 28 DAT against Matricaria inodora: 30%
  Herbicidal action in [%] 14 DAT against Matricaria inodora: 20%
Matricaria inodora; 4 g of a.i./ha, post-emergence
  Herbicidal action in [%] 28 DAT against Matricaria inodora: 0%
Matricaria inodora; 14 DAT
  Herbicidal action: 0%
Matricaria inodora; 14 DAT, 4 g of a.i./ha
  Herbicidal action against Matricaria inodora: 20%
Matricaria inodora; 14 DAT, 16 g of a.i./ha
  Herbicidal action against Matricaria inodora: 20%
Matricaria inodora; 16 g of a.i./ha
  Herbicidal action 14 DAT against Matricaria inodora: 20%
  Herbicidal action 28 DAT against Matricaria inodora: 15%
  Herbicidal action in [%] 14 DAT against Matricaria inodora: 20% and 40%
Matricaria inodora; 28 DAT
  Herbicidal action: 0%
Matricaria inodora; 28 DAT, 1 g of a.i./ha
  Herbicidal action against Matricaria inodora: 15%
Matricaria inodora; 28 DAT, 16 g of a.i./ha
  Herbicidal action against Matricaria inodora: 15%
Matricaria inodora; (Z61) post-emergence, g of a.i./ha: 1, 270, 30, 1 + 270, 1 + 30
  Herbicidal action 14 DAT against Matricaria inodora: 0%
Matricaria inodora; post-emergence, 14 DAT, 4 g of a.i./ha
  Herbicidal action in [%] 14 DAT against Matricaria inodora: 30%
Matricaria inodora; post-emergence, 14 DAT, 16 g of a.i./ha
  Herbicidal action in [%] 14 DAT against Matricaria inodora: 40%
Panicum maximum; 100 g of a.i./ha
  Herbicidal action 28 DAT [%] against Panicum maximum: 82%
Panicum maximum; g of a.i./ha: 200, 100, 100 + 200
  Herbicidal action 28 DAT against Panicum maximum: 82%
Echinochloa crus-galli
  Herbicidal action 37 DAT [%] against Echinochloa crus-galli: 93%
Viola tricolor; 1 g of a.i./ha
  Herbicidal action 14 DAT against Viola tricolor: 50%
  Herbicidal action 28 DAT against Viola tricolor: 15%
Viola tricolor; 4 g of a.i./ha
  Herbicidal action 28 DAT against Viola tricolor: 30%
Viola tricolor; 16 g of a.i./ha
  Herbicidal action 14 DAT against Viola tricolor: 85%
  Herbicidal action 28 DAT against Viola tricolor: 20%
Viola tricolor; (Z61) post-emergence, g of a.i./ha: 16, 1, 30, 16 + 30, 1 + 30, 1 g of a.i./ha
  Herbicidal action 28 DAT against Viola tricolor: 15%
Viola tricolor; (Z61) post-emergence, g of a.i./ha: 16, 1, 30, 16 + 30, 1 + 30, 16 g of a.i./ha
  Herbicidal action 28 DAT against Viola tricolor: 20%
Setaria viridis
  Herbicidal action 21 DAT against Setaria viridis: 70%
Setaria viridis; post-emergence
  Herbicidal action 21 DAT [%] against Setaria viridis: 70%
Chenopodium album; 100 g of a.i./ha
  Herbicidal action 27 DAT [%] against Chenopodium album: 85%
Chenopodium album; g of a.i./ha: 180, 100, 100 + 180
  Herbicidal action 27 DAT against Chenopodium album: 85%
Bromus sterilis; 1 g of a.i./ha
  Herbicidal action 14 DAT against Bromus sterilis: 15%
  Herbicidal action 28 DAT against Bromus sterilis: 15%
  Herbicidal action in [%] 28 DAT against Bromus sterilis: 30%
Bromus sterilis; 4 g of a.i./ha
  Herbicidal action 14 DAT against Bromus sterilis: 85%
  Herbicidal action in [%] 28 DAT against Bromus sterilis: 90%
Bromus sterilis; 14 DAT, 1 g of a.i./ha
  Herbicidal action in [%] 14 DAT against Bromus sterilis: 30%
Bromus sterilis; [4]
  Herbicidal action 28 DAT against Bromus sterilis: 15%
Lamium purpureum; 1 g of a.i./ha
  Herbicidal action 14 DAT against Lamium purpureum L.: 65%
  Herbicidal action 28 DAT against Lamium purpureum L.: 25%
  Herbicidal action in [%] 14 DAT against Lamium purpureum L.: 65%
  Herbicidal action in [%] 28 DAT against Lamium purpureum L.: 25%
Lamium purpureum; 4 g of a.i./ha
  Herbicidal action in [%] 28 DAT against Lamium purpureum L.: 40%
Lamium purpureum; 14 DAT, 1 g of a.i./ha
  Herbicidal action against Lamium purpureum L.: 65%
Lamium purpureum; 28 DAT, 1 g of a.i./ha
  Herbicidal action against Lamium purpureum L.: 25%
Lamium purpureum; 28 DAT, 4 g of a.i./ha
  Herbicidal action against Lamium purpureum L.: 40%
Lamium purpureum; 100 g of a.i./ha, post-emergence
  Herbicidal action 32 DAT [%] against Lamium purpureum: 50%
Lamium purpureum; [4]
  Herbicidal action 14 DAT against Lamium purpureum L.: 65%
